Test results from publication PMC11879280, “Antimicrobial activity of peptoids against Metallo-β-lactamase-producing Klebsiella pneumoniae, Acinetobacter baumannii, Pseudomonas aeruginosa, and other WHO priority pathogens, including Candida auris” (Journal of Applied Microbiology, 2025).
Values after ≈ are worked out from the molar mass of the structure shown. Where two headings read alike, the source gives them in different places.

What was measured:
[1] = test system: C. auris CBS12373 biofilm; assay: Initial biofilm inhibition, MTT reduction assay; type: cell-based, Candida auris
[2] = test system: C. auris CBS10913; assay: microbe, parasite or virus in culture; conditions: Candidozyma auris, read-out: MIC against C. auris
[3] = test system: C. auris CBS12373 biofilm; assay: Anti-adherence (biofilm prevention), MTT reduction assay; type: cell-based, Candida auris
Procedure: Finally, 3-(4,5-Dimethylthiazol 2-yl)-2,5-diphenyltetrazolium bromide (MTT) reduction assay was performed to observe the metabolic activities of C. auris.

[4] = test system: C. auris CBS12373 biofilm; type: cell-based, Candida auris; conditions: for Mature biofilm inhibition, blank corrected 570 nm, av. of readings: MTT absorbance
Procedure: To assess disruption of mature biofilms, 2 × 10^5 cells were cultured for 2 h in 96-well flat bottom microtiter plates at 37°C, washed, then incubated for 48 h in fresh media to form mature biofilm. […] For each activity test, the metabolic activities of the yeast cells in biofilms were measured by MTT reduction assay after washing the disrupted biofilm with PBS (Srivastava and Ahmad [2020]).

[5] = test system: C. auris CBS10913; conditions: CBS 10 913; RPMI 1640 with MOPS, 5 × 10^3 CFU ml^−1; ≥90% reduction (≥50% for fluconazole)
[6] = test system: C. auris CBS12373; assay: Checkerboard microdilution synergy test; type: cell-based, Candida auris
Procedure: (§1) The checkerboard microdilution test was performed to determine the fractional inhibitory concentration (FIC) of selected antimicrobials and assess whether the combination had synergistic, antagonistic, or indifferent effects (Anon [2016]) against strains of K. pneumoniae or C. auris. […] Additionally, a strain susceptible to ciprofloxacin was tested to observe the outcome of its combination with TM8 as a representative case from susceptible isolates. […] Then, 10 µl of bacteria (5 × 10^6 CFU ml^−1) or C. auris (2.5 × 10^4 CFU ml^−1) were added to each well, except for the sterility control well. […] The sterility control wells contained only MHB (or RPMI in case of C. auris), and the growth control contained 110 µl of microbial inoculum with no antimicrobials. Subsequently, the plates were incubated for 18- 24 hours at 36 ± 1 °C.
(§2) The FIC for each combination interaction was calculated as follows:
(§3) Then, the summation of FIC (ƩFIC) was calculated for each antimicrobial combination as follows: ƩFIC = FICA + FICB. The results were interpretated as follows: Synergy if ƩFIC ≤ 0.5; Additive if 0.5<ƩFIC ≤ 1; Indifference if […] ≤ 4; and Antagonism if ƩFIC > 4 (Odds [2003]). All antimicrobial synergy experiments were repeated in at least two independent runs.

[7] = test system: C. auris CBS10913; assay: Checkerboard microdilution synergy test; type: cell-based, Candida auris
Procedure: as §1, §2, §3

[8] = test system: C. auris CBS12373; assay: Broth microdilution MIC; type: cell-based, Candida auris
[9] = test system: A. baumannii 006; assay: MIC Test Strip MBL (imipenem, imipenem with EDTA); type: cell-based; conditions: Acinetobacter baumannii, Mueller–Hinton agar, 20 h, 37°C, read-out: Imipenem IMI (MIC, MBL strip)
Procedure: (§4) The test was performed as per the manufacturer’s instructions. Briefly, the strips were applied to a lawn culture of bacteria maintained at 1.5 × 10^8 CFU ml^−1 on Mueller–Hinton agar (Oxoid, UK) and incubated for 20 h at 37°C.

[10] = test system: P. aeruginosa 33; assay: MIC Test Strip MBL (imipenem, imipenem with EDTA); type: cell-based; conditions: Pseudomonas aeruginosa, Mueller–Hinton agar, 20 h, 37°C, read-out: Imipenem IMI (MIC, MBL strip)
Procedure: as §4

[11] = test system: K. pneumoniae JIE2713; assay: MIC Test Strip MBL (imipenem, imipenem with EDTA); type: cell-based; conditions: Klebsiella pneumoniae, Mueller–Hinton agar, 20 h, 37°C, read-out: Imipenem IMI (MIC, MBL strip)
Procedure: as §4

[12] = test system: A. baumannii 005; assay: MIC Test Strip MBL (imipenem, imipenem with EDTA); type: cell-based; conditions: Acinetobacter baumannii, Mueller–Hinton agar, 20 h, 37°C, read-out: Imipenem IMI (MIC, MBL strip)
Procedure: as §4

[13] = test system: A. baumannii 007; assay: MIC Test Strip MBL (imipenem, imipenem with EDTA); type: cell-based; conditions: Acinetobacter baumannii, Mueller–Hinton agar, 20 h, 37°C, read-out: Imipenem IMI (MIC, MBL strip)
Procedure: as §4

[14] = test system: A. baumannii 008; assay: MIC Test Strip MBL (imipenem, imipenem with EDTA); type: cell-based; conditions: Acinetobacter baumannii, Mueller–Hinton agar, 20 h, 37°C, read-out: Imipenem IMI (MIC, MBL strip)
Procedure: as §4

[15] = test system: K. pneumoniae JIE2709; assay: MIC Test Strip MBL (imipenem, imipenem with EDTA); type: cell-based; conditions: Klebsiella pneumoniae, Mueller–Hinton agar, 20 h, 37°C, read-out: Imipenem IMI (MIC, MBL strip)
Procedure: as §4

[16] = test system: P. aeruginosa AR-1270; assay: MIC Test Strip MBL (imipenem, imipenem with EDTA); type: cell-based; conditions: Pseudomonas aeruginosa, AR1270, Mueller–Hinton agar, 20 h, 37°C, read-out: Imipenem IMI (MIC, MBL strip)
Procedure: as §4

[17] = Candidozyma auris, read-out: MIC of DrugB (alone, checkerboard)

OC(Cn1cncn1)(Cn1cncn1)c1ccc(F)cc1F [Fluconazole, reference compound]
Biofilm tolerance factor-inhibition (MBIC/MIC) [1]: 4 | Initial biofilm MBIC ([1]; 4 h adhesion, then 48 h with agent, ≥90% reduction): 2048 µg/mL | MIC [2]: 3.3 µM (≈ 1.01 µg/mL) | Biofilm tolerance factor-prevention (BPC/MIC) [3]: 8 | Anti-adherence (BPC) ([3]; 2 h adhesion with agent, 48 h growth, ≥90% reduction): 4096 µg/mL | Mature biofilm MBEC ([4]; C. auris CBS12373, 48 h biofilm, then 24 h with agent, MTT, ≥90% reduction): 2048 µg/mL | Biofilm tolerance factor-eradication (MBEC/MIC) ([4]; C. auris CBS12373, MTT): 4 | Mature biofilm inhibition, blank corrected 570 nm, av. of readings ([4]; agent at 4 (growth control 1.918)): 2.95 | Mature biofilm inhibition, blank corrected 570 nm, av. of readings ([4]; agent at 8 (growth control 1.918)): 2.348 | Mature biofilm inhibition, blank corrected 570 nm, av. of readings ([4]; agent at 16 (growth control 1.918)): 2.232 | Mature biofilm inhibition, blank corrected 570 nm, av. of readings ([4]; agent at 32 (growth control 1.918)): 2.12 | Mature biofilm inhibition, blank corrected 570 nm, av. of readings ([4]; agent at 64 (growth control 1.918)): 2.186 | Mature biofilm inhibition, blank corrected 570 nm, av. of readings ([4]; agent at 128 (growth control 1.918)): 0.95 | Mature biofilm inhibition, blank corrected 570 nm, av. of readings ([4]; agent at 256 (growth control 1.918)): 0.345 | Mature biofilm inhibition, blank corrected 570 nm, av. of readings ([4]; agent at 512 (growth control 1.918)): 0.145 | Mature biofilm inhibition, blank corrected 570 nm, av. of readings ([4]; agent at 1024 (growth control 1.918)): 0.104 | Mature biofilm inhibition, blank corrected 570 nm, av. of readings ([4]; agent at 2048 (growth control 1.918)): 0.008 | MIC against C. auris [5]: 1 µg/mL (≈ 3.27 µM) | MIC [6, 17]: 128 µg/mL | FICDrugB ([6]; in combination with TM8): 0.0625 | MF of antibiotic (modulation factor) ([6]; in combination with TM8 (0.5× MIC)): 16 | MIC [7, 17]: 1 µg/mL | FICDrugB ([7]; in combination with TM8): 0.0625 | MF of antibiotic (modulation factor) ([7]; in combination with TM8): 16 | MIC against C. auris ([8]; CBS 12 373, RPMI 1640 with MOPS, 5 × 10^3 CFU ml^−1, ≥90% reduction (≥50% for fluconazole)): 128 µg/mL (≈ 418 µM) | MIC90 ([8]; Candidozyma auris, C. auris CBS12373 suspension used in the antibiofilm study, read-out: MIC90): 512 µg/mL (≈ 1670 µM) | MIC ([8]; Candidozyma auris, CBS 12 373, value in brackets, read-out: MIC against C. auris): 418 µM (≈ 128 µg/mL)

C[C@@H](O)[C@H]1C(=O)N2C(C(=O)O)=C(SCCN=CN)C[C@H]12 [Imipenem, imipenem]
MIC [9]: 64 µg/mL (≈ 214 µM) | MIC [10]: 8 µg/mL (≈ 26.7 µM) | MIC [11]: 128 µg/mL (≈ 428 µM) | MIC [12]: 64 µg/mL (≈ 214 µM) | MIC [13]: 96 µg/mL (≈ 321 µM) | MIC [14]: 48 µg/mL (≈ 160 µM) | MIC [15]: 16 µg/mL (≈ 53.4 µM) | MIC [16]: 16 µg/mL (≈ 53.4 µM)
